Data as given in patent US9453034B2, “C2-azaspiro iminothiazine dioxides as BACE inhibitors, compositions, and their use” (Merck Sharp & Dohme Corp., priority 2013, dated 2016).

Assays:
[1] = molecular target: soluble human BACE1 catalytic domain (Homo sapiens (Human), UniProt P56817); assay: BACE1 HTRF FRET Assay; type: biochemical; details: Ki calculated from IC50 using the Cheng-Prusoff equation; QSY7-APPswe-Eu substrate, pH 5.0
Excerpt: Reagents: Na^+-Acetate pH 5.0; 1% Brij-35; Glycerol; Dimethyl Sulfoxide (DMSO);
A homogeneous time-resolved FRET assay can be used to determine IC50 values for inhibitors of the soluble human BACE1 catalytic domain. This assay monitors the increase of 620 nm fluorescence that resulted from BACE1 cleavage of an APPswedish APP^swe mutant peptide FRET substrate (QSY7-[…]-Europium-amide). This substrate contains an N-terminal QSY7 moiety that serves as a quencher of the C-terminal Europium fluorophore (620 nm Em). […] Inhibition of BACE1 cleavage of the QSY7-APP^swe-Eu substrate by inhibitors is manifested as a suppression of 620 nm fluorescence.
Reactions are initiated by addition of 10 μl of 600 nM QSY7-APP^swe-Eu substrate (200 nM final) to give a final reaction volume of 30 μl in a 384 well Nunc HTRF plate. The reactions are incubated at 30° C. for 1.5 hours. The 620 nm fluorescence is then read on a Rubystar HTRF plate reader (BMG Labtechnologies) using a 50 millisecond delay followed by a 400 millisecond acquisition time window. Inhibitor IC50 values are derived from non-linear regression analysis of concentration response curves.

[2] = molecular target: purified human autoBACE-2 (Homo sapiens (Human), UniProt Q9Y5Z0); assay: BACE-2 Assay (BACE-HTRF assay); type: biochemical; details: Ki calculated from IC50 using the Cheng-Prusoff equation; QSY7-EISEVNLDAEFC-Eu-amide substrate, pH 5.0; read-out: BACE2 Ki
Sequence of purified human autoBACE-2 (Q9Y5Z0 63-473): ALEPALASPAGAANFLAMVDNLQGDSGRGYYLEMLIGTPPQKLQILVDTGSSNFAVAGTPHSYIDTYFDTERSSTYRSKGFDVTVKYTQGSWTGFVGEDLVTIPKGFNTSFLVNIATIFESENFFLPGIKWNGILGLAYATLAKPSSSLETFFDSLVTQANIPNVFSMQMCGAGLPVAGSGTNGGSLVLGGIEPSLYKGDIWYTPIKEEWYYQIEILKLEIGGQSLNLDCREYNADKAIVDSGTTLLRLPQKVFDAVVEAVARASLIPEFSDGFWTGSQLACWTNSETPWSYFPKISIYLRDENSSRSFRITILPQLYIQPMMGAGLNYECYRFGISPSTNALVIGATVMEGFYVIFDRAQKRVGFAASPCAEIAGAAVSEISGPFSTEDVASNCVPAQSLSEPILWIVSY
Procedure: Inhibitor IC50s at purified human autoBACE-2 are determined in a time-resolved endpoint proteolysis assay that measures hydrolysis of the QSY7-EISEVNLDAEFC-Eu-amide FRET peptide substrate (BACE-HTRF assay). BACE-mediated hydrolysis of this peptide results in an increase in relative fluorescence (RFU) at 620 nm after excitation with 320 nm light. Inhibitor compounds, prepared at 3× the desired final concentration in 1×BACE assay buffer (20 mM sodium acetate pH 5.0, 10% glycerol, 0.1% Brij-35) supplemented with 7.5% DMSO are pre-incubated with an equal volume of autoBACE-2 enzyme diluted in 1×BACE assay buffer (final enzyme concentration 1 nM) in black 384-well NUNC plates for 30 minutes at 30° C. The assay is initiated by addition of an equal volume of the QSY7-EISEVNLDAEFC-Eu-amide substrate (200 nM final concentration, Km=8 μM […] for autoBACE-2) prepared in 1×BACE assay buffer supplemented with 7.5% DMSO and incubated for 90 minutes at 30° C. DMSO is present at 5% final concentration in the assay. Following laser excitation of sample wells at 320 nm, the fluorescence signal at 620 nm is collected for 400 ms following a 50 μs delay on a RUBYstar HTRF plate reader (BMG Labtechnologies). Raw RFU data is normalized to maximum (1.0 nM BACE/DMSO) and minimum (no enzyme/DMSO) RFU values. IC50s are determined by nonlinear regression analysis (sigmoidal dose response, variable slope) of percent inhibition data with minimum and maximum values set to 0 and 100 percent respectively. Similar IC50s are obtained when using raw RFU data. The Ki values are calculated from the IC50 using the Cheng-Prusoff equation.

Sequence of soluble human BACE1 catalytic domain (P56817 75-416): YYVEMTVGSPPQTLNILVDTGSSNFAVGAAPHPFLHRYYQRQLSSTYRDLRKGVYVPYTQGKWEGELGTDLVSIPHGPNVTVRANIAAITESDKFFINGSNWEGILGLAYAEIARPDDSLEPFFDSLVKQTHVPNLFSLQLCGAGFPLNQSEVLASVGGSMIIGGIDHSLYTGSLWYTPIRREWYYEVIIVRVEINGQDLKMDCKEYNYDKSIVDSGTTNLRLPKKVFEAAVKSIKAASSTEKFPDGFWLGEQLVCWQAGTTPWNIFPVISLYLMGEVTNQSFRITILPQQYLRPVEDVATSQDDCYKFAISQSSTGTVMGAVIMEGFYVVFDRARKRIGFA

Compound: CC#CCOc1ccc(C(=O)Nc2ccc(F)c([C@]3(C)CS(=O)(=O)C4(CCN(C)CC4)C(=N)N3)c2)nc1 [Example 36, 5-(but-2-yn-1-yloxy)-N-{4-fluoro-3-[(3R)-5-imino-3,9-dimethyl-1,1-dioxido-1-thia-4,9-diazaspiro[5.5]undec-3-yl]phenyl}pyridine-2-carboxamide]
- Ki [1]: 2.3 nM
- Ki [2]: 30 nM

Compound: CN1CCC2(CC1)C(=N)N[C@](C)(c1cc(NC(=O)c3ccc(F)cn3)ccc1F)CS2(=O)=O [Example 26, 5-fluoro-N-{4-fluoro-3-[(3R)-5-imino-3,9-dimethyl-1,1-dioxido-1-thia-4,9-diazaspiro[5.5]undec-3-yl]phenyl}pyridine-2-carboxamide]
- Ki [1]: 37 nM
- Ki [2]: 6.4 nM

Compound: CNC(=O)N1CC2(C1)C(=N)N[C@](C)(c1cc(NC(=O)c3ccc(OC)cn3)ccc1F)CS2(=O)=O [Example 39, (R)-7-(2-fluoro-5-(5-methoxypicolinamido)phenyl)-9-imino-N,7-dimethyl-5-thia-2,8-diazaspiro[3.5]nonane-2-carboxamide 5,5-dioxide]
- Ki [1]: 7.3 nM
- Ki [2]: 1.7 nM

Compound: CN1CC2(C1)C(=N)N[C@](C)(c1cc(NC(=O)c3ccc(OC(F)F)cn3)ccc1F)CS2(=O)=O [Example 7, 5-(difluoromethoxy)-N-{4-fluoro-3-[(7R)-9-imino-2,7-dimethyl-5,5-dioxido-5-thia-2,8-diazaspiro[3.5]non-7-yl]phenyl}pyridine-2-carboxamide]
- Ki [1]: 2.7 nM
- Ki [2]: 4.3 nM
